Experimental data: patent US9440913B2, “Dihydroxybenzene derivatives and antiprotozoal agent comprising same as active ingredient” (NAI INC., priority 2010, dated 2016)
pIC50: −log10 of the molar value. Read-outs that look alike come from different tables or passages of the source.

Experiments:
[1] = target: T1, recombinant Trypanosome AOX (TAO) enzyme (Trypanosoma brucei brucei, UniProt Q26710); assay: TAO enzyme inhibition (quinol oxidase activity, ubiquinol-1 substrate); type: biochemical, T. brucei brucei; conditions: TAO-expressing E. coli membrane fraction, 25° C., ubiquinol-1, absorbance at 278 nm
T1 construct: made in house; host or cells: Escherichia coli (membrane fraction)
Procedure: Escherichia coli membrane fractions that express TAO by a plasmid harboring TAO cDNA cloned from T. brucei brucei (Fukai, Comparative Biochemistry & Physiology, 124, 141-148, 1999) were used as a recombinant Trypanosome AOX (TAO) enzyme. 50 mM Tris-HCl (pH 7.5), TAO-expressing membrane fraction (0.35 ng), and […] of an inhibitor were mixed in a 1 mL cuvette, and the mixture was incubated at 25° C. for 4 minutes. Ubiquinol-1 as a substrate was then added to the mixture to initiated the reaction, and change in absorbance at 278 nm was monitored (Shimadzu UV-3000, molar absorption coefficient ε=15 cm^−1 mM^−1).

T. b. rhodesiense IL1501 = assay: Antiprotozoal effect, MIC measurement in HMI-9 culture; type: cell-based; conditions: for MIC: Trypanosoma brucei, RHODESIENSE, 24 h, bloodstream forms, 18 + 6 hours culture
Procedure: T. b. rhodesiense IL1501, the human infectious protozoan that causes acute symptoms, was used as a Trypanosomatid protozoan. The bloodstream forms of protozoan can be cultured in a HMI-9 culture medium (Hirumi, 1989). The protozoan was always cultured at a temperature of 37° C. in the presence of 5% CO2.
In a microtiter plate (96-well, FALCON 3072), HMI-9 culture medium and HMI-9 culture medium plus glycerol added to make a final concentration of 8.33 mM are separately prepared. 89 μL of the preparation are put into only the first well, and a 60 μL aliquot of each the other wells. 1 μL of a solution of AF or a AF derivative dissolved in DMSO was added to the first well, and was then suspended. A 30 μL aliquot of the suspension was then collected, was transferred to the second well, and was suspended. These operations were repeated in this order to prepare a three-fold dilution series of drug. A 40 μL aliquot of a protozoan culture was added to each well to make a final concentration of 5×10^4 cells/well (a final concentration of glycerol of 5 mM) followed by 18-hours culturing under conditions of 37° C. and 5% CO2. (For EC50 measurement, a 10 μL aliquot of Alamar Blue was added to each well), culturing was carried out under the same conditions for 6 more hours, surviving protozoans were visually observed with a microscope. The concentration at which no motile surviving protozoan was observed was defined as MIC.

[2] = target: Cryptosporidium cyanide insensitive oxidase (AOX), recombinant protein (cCpAOX) (Cryptosporidium parvum, UniProt Q761U6); assay: CpAOX enzyme inhibition; type: biochemical
Excerpt: Cryptosporidium has found to have cyanide insensitive oxidase (AOX), and its inhibitory activity was observed using its recombinant protein (cCpAOX) produced in E. coli.

[3] = Glycerol (+), final concentration of glycerol of 5 mM

Cryptosporidium cyanide insensitive oxidase (AOX), recombinant protein (cCpAOX), sequence (Q761U6 entry or part of it): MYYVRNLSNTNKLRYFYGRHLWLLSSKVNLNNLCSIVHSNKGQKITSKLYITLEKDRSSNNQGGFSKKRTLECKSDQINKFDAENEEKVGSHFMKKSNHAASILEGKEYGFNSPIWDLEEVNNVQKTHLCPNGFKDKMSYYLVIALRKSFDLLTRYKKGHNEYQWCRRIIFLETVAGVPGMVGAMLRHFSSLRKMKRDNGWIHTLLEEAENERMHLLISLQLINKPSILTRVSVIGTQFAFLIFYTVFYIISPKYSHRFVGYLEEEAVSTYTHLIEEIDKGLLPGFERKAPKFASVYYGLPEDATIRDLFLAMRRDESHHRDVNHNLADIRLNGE
T1 sequence (Q26710 whole entry): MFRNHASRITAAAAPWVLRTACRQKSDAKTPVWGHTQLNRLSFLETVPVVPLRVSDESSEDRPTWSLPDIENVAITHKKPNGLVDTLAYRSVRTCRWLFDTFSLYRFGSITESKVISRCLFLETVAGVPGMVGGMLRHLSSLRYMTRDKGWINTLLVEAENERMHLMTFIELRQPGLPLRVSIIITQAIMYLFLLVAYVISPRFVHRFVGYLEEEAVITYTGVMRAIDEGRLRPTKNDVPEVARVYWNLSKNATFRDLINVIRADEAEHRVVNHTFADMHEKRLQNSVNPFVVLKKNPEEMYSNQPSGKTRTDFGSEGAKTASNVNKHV

C/C(=C\Cc1c(O)c(Cl)c(C)c(C=O)c1O)CC/C=C(\C)C1OC(C)C(C)O1 (stereo not drawn) [Compound 509-11, 3-Chloro-5-((2E,6E)-7-(4,5-dimethyl-1,3-dioxolane-2-yl)-3-methyl-2,6-octadienyl)-4,6-dihydroxy-2-methylbenzaldehyde]
pIC50 [1]: 9.52 | melting point: 35 to 36 °C

Cc1c(Cl)c(O)c(CCCCCCCCCCCC(=O)O)c(O)c1C=O [Compound 215-13-COOH, 12-(3-Chloro-5-formyl-2,6-dihydroxy-4-methylphenyl)dodecanoic acid]
pIC50 [1]: 8.38 | melting point: 130 to 131 °C

COCOC/C(C)=C/CC/C(C)=C/Cc1c(O)c(Cl)c(C)c(C=O)c1O [Compound 236-12-OMOM, 3-Chloro-5-[(2E,6E)-3,7-dimethyl-8-(methoxymethoxy)-2,6-octadienyl]-4,6-dihydroxy-2-methylbenzaldehyde]
pIC50 [1]: 9.92 | melting point: 49 to 50 °C

Cc1c(Cl)c(O)c(CCCCCCCC2CC(=O)C(C)(C)O2)c(O)c1C=O (stereo not drawn) [Compound 250, 5-Chloro-2,4-dihydroxy-6-methyl-3-[7-(3,3-dimethyl-4-oxo-2-oxacyclopentyl)heptyl]benzaldehyde]
pIC50 [1]: 9.30 | MIC (T. b. rhodesiense IL1501; [3]): 0.78 nM | MIC (T. b. rhodesiense IL1501; Glycerol (−)): 12 nM | melting point: 70 to 71 °C

CCC(=O)OCCCCCCC/C=C/c1c(O)c(Cl)c(C)c(C=O)c1O [Compound 200-13-OCOEt, (E)-9-(3-Chloro-5-formyl-2,6-dihydroxy-4-methylphenyl)-8-nonenyl propionate]
pIC50 [1]: 9.52 | melting point: 72 to 73 °C

CCCCCC(C)CCc1c(O)c(Cl)c(C)c(C=O)c1O (stereo not drawn) [Compound 265-8, 3-Chloro-4,6-dihydroxy-2-methyl-5-(3-methyloctyl)benzaldehyde]
pIC50 [1]: 9.74 | MIC (T. b. rhodesiense IL1501; [3]): 0.011 nM | MIC (T. b. rhodesiense IL1501; Glycerol (−)): 0.46 nM | melting point: 65 to 67 °C

Cc1c(Cl)c(O)c(CCCCCCCCCC(=O)OCC2COC(=O)O2)c(O)c1C=O (stereo not drawn) [Compound 501-16-G, 1,3 Dioxolane-2-oxo-4-methyl 10-(3-chloro-5-formyl-2,6-dihydroxy-4-methylphenyl)decanoate]
pIC50 [1]: 9.49 | MIC (T. b. rhodesiense IL1501; [3]): 1800 nM | MIC (T. b. rhodesiense IL1501; Glycerol (−)): 14000 nM | melting point: 70 to 72 °C

C/C(=C\Cc1c(O)c(Cl)c(C)c(C=O)c1O)CC/C=C(\C)COC1CCCO1 (stereo not drawn) [Compound 236-12-OTHF, 3-Chloro-5-[(2E,6E)-3,7-dimethyl-8-(tetrahydrofuran-2-yloxy)-2,6-octadienyl]-4,6-dihydroxy-2-methylbenzaldehyde]
pIC50 [1]: 9.92 | melting point: 35 to 36 °C

Cc1c(Cl)c(O)c(CCC(C)CCCCOC(=O)C(C)(C)C)c(O)c1C=O (stereo not drawn) [Compound 265-11-OPiv, 7-(3-Chloro-2,6-dihydroxy-5-formyl-4-methylphenyl)-5-methylheptyl pivalate]
pIC50 [1]: 9.44 | pIC50 [2]: 8.64

C/C(C=O)=C\CC/C(C)=C/Cc1c(O)c(Cl)c(C)c(C=O)c1O [Compound 274-9, 3-Chloro-5-[(2E,6E)-3,7-dimethyl-8-oxo-2,6-octadienyl]-4,6-dihydroxy-2-methylbenzaldehyde]
pIC50 [1]: 9.52 | melting point: 111.2 to 111.4 °C

Cc1c(Cl)c(O)c(CCC(C)CCCC(C)COC(=O)C(C)(C)C)c(O)c1C=O (stereo not drawn) [Compound 235-12-OPiv, 8-(3-Chloro-5-formyl-2,6-dihydroxy-4-methylphenyl)-2,6-dimethyloctyl pivalate]
pIC50 [2]: 8.64

CC(=O)c1c(C)c(Cl)c(O)c(C/C=C(\C)CC/C=C(\C)CCC=C(C)C)c1O [Compound 282-12, (E,E)-3-Chloro-4,6-dihydroxy 5-(3,7,11-trimethyl-2,6,10-dodecathenyl)-2-methylacetophenone]
pIC50 [1]: 9.82 | MIC (T. b. rhodesiense IL1501; [3]): 11 nM | MIC (T. b. rhodesiense IL1501; Glycerol (−)): 19 nM | melting point: 92 to 93 °C

Cc1c(Cl)c(O)c(CCCCCCCCCOC(=O)C(C)(C)C)c(O)c1C=O [Compound 215-13-OPiv, 9-(3-Chloro-5-formyl-2,6-dihydroxy-4-methylphenyl)nonyl pivalate]
pIC50 [1]: 9.66 | MIC (T. b. rhodesiense IL1501; [3]): 0.0081 nM | MIC (T. b. rhodesiense IL1501; Glycerol (−)): 280 nM | melting point: 62 °C

C/C(=C\CC/C(C)=C/Cc1c(O)c(Cl)c(C)c(C=O)c1O)CO [Compound 236-9-OH, 3-Chloro-4,6-dihydroxy-5-[(2E,6E)-8-hydroxy-3,7-dimethyl-2,6-octadienyl]-2-methylbenzaldehyde]
pIC50 [1]: 9.52 | melting point: 99 to 99.7 °C

C/C(=C\Cc1c(O)c(Cl)c(C)c(C=O)c1O)CC/C=C(\C)CCC1OC1(C)C (stereo not drawn) [Compound 281-12, 3-Chloro-5-[(2E,6E)-3,7-dimethyl-9-(3,3-dimethyloxiran-2-yl)-2,6-nonadienyl]-4,6-dihydroxy-2-methylbenzaldehyde]
pIC50 [1]: 9.68 | melting point: 36 to 37 °C

CC(C)=CCC/C(C)=C/Cc1c(O)c(Cl)cc(C=O)c1O [Compound 224, (E)-5-Chloro-2,4-dihydroxy-3-(3,7-dimethyl-2,6-octadienyl)benzaldehyde]
melting point: 94 to 95 °C

COC(=O)c1cc(Cl)c(O)c(C/C=C(\C)CCC=C(C)C)c1O
melting point: 71 °C

CC(=O)c1c(C)c(Cl)c(O)c(C/C=C(\C)CCC=C(C)C)c1O [Compound 173, (E)-3-Chloro-4,6-dihydroxy-5-(3,7-dimethyl-2,6-octadienyl)-2-methylacetophenone]
pIC50 [1]: 9.82 | Antiprotozoal Effect (MIC) Glycerol (+) (T. b. rhodesiense IL1501; Glycerol (+), final concentration of glycerol of 5 mM, cell prints its own unit fM): 0.0008 nM | MIC (T. b. rhodesiense IL1501; Glycerol (−)): 1.4 nM | melting point: 57 to 58 °C

Cc1c(Cl)c(O)c(/C=C/CCCCCCOC(=O)C(C)(C)C)c(O)c1C=O [Compound 200-12-OPiv, (E)-8-(3-Chloro-5-formyl-2,6-dihydroxy-4-methylphenyl)-7-octenyl pivalate]
pIC50 [1]: 9.15 | melting point: 57 to 58 °C

CC(C)=CCC/C(C)=C/Cc1c(O)ccc(C=O)c1O [Compound 217, (E)-2,4-Dihydroxy-3-(3,7-dimethyl-2,6-octadienyl)benzaldehyde]
melting point: 85 °C

CC(C)=CCCC#CCc1c(O)c(Cl)c(C)c(C=O)c1O [Compound 285-8, 3-Chloro-4,6-dihydroxy-2-methyl-5-(7-methyl-6-octen-2-ynyl)benzaldehyde]
pIC50 [1]: 9.52 | melting point: 138 °C

Cc1c(Cl)c(O)c(CCCCCCCOC(=O)C(C)(C)C)c(O)c1C#N [Compound 193-11-OPiv, 7-(3-Chloro-5-cyano-2,6-dihydroxy-4-methylphenyl)heptyl pivalate]
pIC50 [1]: 8.22 | melting point: 67 to 68 °C

Cc1c(Cl)c(O)c(CCCCCCCCOC(=O)C(C)C)c(O)c1C=O [Compound 215-12-OCOiPr, 8-(3-Chloro-5-formyl-2,6-dihydroxy-4-methylphenyl)octyl isobutylate]
pIC50 [1]: 9.54 | IC50 ([2]; recombinant protein produced in E. coli, read-out: CpAOX enzyme inhibition (IC50:nM)): 3.7 nM

CCCCCC(C)=CCc1c(O)c(Cl)c(C)c(C(C)=O)c1O (mixture of isomers) [Compound 268-8, (E/Z)-3-Chloro-4,6-dihydroxy-2-methyl-5-(3-methyl-2-octenyl)acetophenone]
pIC50 [1]: 9.26 | MIC (T. b. rhodesiense IL1501; [3]): 0.28 nM | MIC (T. b. rhodesiense IL1501; Glycerol (−)): 14.7 nM | melting point: 42 to 46 °C

C/C(=C\Cc1c(O)c(Cl)cc(C=O)c1O)CC/C=C(\C)C1CC(=O)C(C)(C)O1 (stereo not drawn) [Compound 209, 5-Chloro-2,4-dihydroxy-3-[(2E,6E)-7-(5,5-dimethyl-4-oxotetrahydrohuran-2-yl)-3,7-dimethyl-2,6-heptadienyl]benzaldehyde]
pIC50 [1]: 9.70 | melting point: 70 to 72 °C
